These results are taken from patent US4921855A, “New Histidyl amino acid derivatives, and pharmaceutical composition comprising the same” (Fujisawa Pharmaceutical Co., Ltd., priority 1987, dated 1990).

The structures appear in SMILES notation.

The IC50 is the concentration needed to halve the response being measured. Read a low IC50 as greater potency in that assay.

This assay has as its target T1, renin (Homo sapiens, UniProt P00797).
T1 construct: endogenous renin and angiotensinogen in plasma; from tissue; host or cells: pooled human plasma (EDTA) from male volunteers
T1 sequence (P00797 67-406): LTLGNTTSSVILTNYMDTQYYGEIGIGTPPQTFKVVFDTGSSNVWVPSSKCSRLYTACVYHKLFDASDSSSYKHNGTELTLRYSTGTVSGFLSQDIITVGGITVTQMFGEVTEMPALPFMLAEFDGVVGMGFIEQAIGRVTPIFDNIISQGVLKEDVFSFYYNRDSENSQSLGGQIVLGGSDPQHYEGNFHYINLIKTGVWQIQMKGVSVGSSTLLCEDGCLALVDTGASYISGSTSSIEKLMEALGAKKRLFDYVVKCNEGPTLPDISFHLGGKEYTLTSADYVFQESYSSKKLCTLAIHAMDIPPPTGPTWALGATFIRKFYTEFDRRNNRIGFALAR
In words: Inhibition of human plasma renin activity (angiotensin I formation, RIA). The conditions noted are these: endogenous renin and angiotensinogen, pH 6.0, 37° C, 90 minutes, RIA of Ang I. It counts as biochemical. As to the method:
Human plasma was collected from male volunteers pretreated with no drugs and used as a pool. Disodium salt of ethylenediaminetetraacetic acid (EDTA) was used as the anticoagulant. Plasma renin activity was measured as the rate of angiotensin I (Ang I) formation after incubation (37° C) of the endogenous renin and angiotensinogen in plasma at pH 6.0. The incubation mixture contained 250 μl of plasma, 5 μl of (phenylmethyl)sulfonyl fluoride, 30 μl of buffer (sodium, potassium-phosphate, pH 6.0), and 15 μl of an appropriate concentration of test compound in 50% ethyl alcohol-water vehicle. The Ang I formed after 90 minutes of incubation was measured by radioimmunoassay (RIA) which was carried out with a commercial kit, RENCTK 100 (manufactured by Commissariat A L'energic Atomique). Samples were incubated in duplicate and each tube was measured in duplicate in the RIA. Percentage inhibition of plasma renin activity was calculated by comparing the amount of Ang I produced with and without a test compound. The concentration of test compound that inhibited plasma renin activity by 50% (IC50) was determined by Probit method.
As for `CC(C)CC[C@H](O)[C@H](CC1CCCCC1)NC(=O)[C@H](Cc1c[nH]cn1)N(C)C(=O)[C@H](Cc1ccccc1)OC(=O)N(C)CCCCN(C)C(=O)N1CCOCC1` [(34)], the IC50 came to 7.5 nM. With `CC(C)CC[C@H](O)[C@H](CC1CCCCC1)NC(=O)[C@H](Cc1c[nH]cn1)N(C)C(=O)[C@H](Cc1ccccc1)OC(=O)N(C)CC(=O)OCCc1ccccc1` [(14)], the IC50 came out at 48 nM. Then `CC(C)CC[C@H](O)[C@H](CC1CCCCC1)NC(=O)[C@H](Cc1c[nH]cn1)N(C)C(=O)[C@H](Cc1ccccc1)OC(=O)N1CCNC(=O)C1` [(12)], with 29 nM; and `CC(C)CC[C@H](O)[C@H](CC1CCCCC1)NC(=O)[C@H](Cc1c[nH]cn1)N(C)C(=O)[C@H](Cc1ccccc1)OC(=O)N(C)CCCC(=O)N(C)C(C)C` [(33)], with 17 nM. Then `CC(C)CC[C@H](O)[C@H](CC1CCCCC1)NC(=O)[C@H](Cc1c[nH]cn1)N(C)C(=O)[C@H](Cc1ccccc1)OC(=O)N1CCCN1C(=O)NC(C)C` [(22)], with 63 nM. `CC(=O)COC(=O)CN(C)C(=O)O[C@@H](Cc1ccccc1)C(=O)N(C)[C@@H](Cc1c[nH]cn1)C(=O)N[C@@H](CC1CCCCC1)[C@@H](O)CCC(C)C` [(15)]: the concentration for half-maximal inhibition (IC50) is 33 nM. The figure for `CC(C)CC[C@H](O)[C@H](CC1CCCCC1)NC(=O)[C@H](Cc1c[nH]cn1)N(C)C(=O)[C@H](Cc1ccccc1)OC(=O)N(C)CCC(=O)N(C)C` [(6)] is 41 nM; for `CC(C)CC[C@H](O)[C@H](CC1CCCCC1)NC(=O)[C@H](Cc1c[nH]cn1)N(C)C(=O)[C@H](Cc1ccccc1)OC(=O)N(C)CCCC(=O)N1CCOCC1` [(32)] it is 15 nM. The figure for `CC(C)CC[C@H](O)[C@H](CC1CCCCC1)NC(=O)[C@H](Cc1c[nH]cn1)NC(=O)[C@H](Cc1ccccc1)OC(=O)N(C)CCC(=O)N1CCOCC1` [(19)] is 4.8 nM; for `CC(C)CC[C@H](O)[C@H](CC1CCCCC1)NC(=O)[C@H](Cc1c[nH]cn1)N(C)C(=O)[C@H](Cc1ccccc1)OC(=O)N(C)CCC(=O)NC(C)C` [(39)] it is 37 nM; for `CC(C)CC[C@H](O)[C@H](CC1CCCCC1)NC(=O)[C@H](Cc1c[nH]cn1)N(C)C(=O)[C@H](Cc1ccccc1)OC(=O)N(C)CC(=O)N(C)C` [(7)] it is 40 nM. The figure for `CC(C)CC[C@H](O)[C@H](CC1CCCCC1)NC(=O)[C@H](Cc1c[nH]cn1)NC(=O)[C@H](Cc1ccccc1)OC(=O)N(C)N(C)C(=O)N1CCOCC1` [(36)] is 9.8 nM.

In turn, `CC(C)CC[C@H](O)[C@H](CC1CCCCC1)NC(=O)[C@H](Cc1c[nH]cn1)N(C)C(=O)[C@H](Cc1ccccc1)OC(=O)N(C)CCS(=O)(=O)C(C)C` [(40)] had an IC50 of 57 nM. The figure for `CC(C)CC[C@H](O)[C@H](CC1CCCCC1)NC(=O)[C@H](Cc1c[nH]cn1)N(C)C(=O)[C@H](Cc1ccccc1)OC(=O)N1CC(=O)N2CCC[C@H]2C1` [(10)] is 21 nM; for `CC(C)CC[C@H](O)[C@H](CC1CCCCC1)NC(=O)[C@H](Cc1c[nH]cn1)N(C)C(=O)[C@H](Cc1ccccc1)OC(=O)N1CCCC(=O)C1` [(28)] it is 44 nM. Then `CC(C)CC[C@H](O)[C@H](CC1CCCCC1)NC(=O)[C@H](Cc1c[nH]cn1)N(C)C(=O)[C@H](Cc1ccccc1)OC(=O)N1CCC[C@@H]1C(=O)N(C)C` [(9)], with 30 nM; and `CC(C)CC[C@H](O)[C@H](CC1CCCCC1)NC(=O)[C@H](Cc1c[nH]cn1)N(C)C(=O)[C@H](Cc1ccccc1)OC(=O)N(C)CCCCC(=O)N1CCOCC1` [(35)], with 5.3 nM; and `CC(C)CC[C@H](O)[C@H](CC1CCCCC1)NC(=O)[C@H](Cc1c[nH]cn1)N(C)C(=O)[C@H](Cc1ccccc1)OC(=O)N(C)CCN(C)C(=O)CC(C)C` [(25)], with 14 nM. The figure for `CC(C)CC[C@H](O)[C@H](CC1CCCCC1)NC(=O)[C@H](Cc1c[nH]cn1)N(C)C(=O)[C@H](Cc1ccccc1)OC(=O)N(C)N(C)C(=O)OCC(C)C` [(20)] is 70 nM; for `CC(C)CC[C@H](O)[C@H](CC1CCCCC1)NC(=O)[C@H](Cc1c[nH]cn1)N(C)C(=O)[C@H](Cc1ccccc1)OC(=O)N1CCOCC1` [(2)] it is 80 nM. As for `CC(C)CC[C@H](O)[C@H](CC1CCCCC1)NC(=O)[C@H](Cc1c[nH]cn1)NC(=O)[C@H](Cc1ccccc1)OC(=O)N1CCOCC1` [(1)], the IC50 came to 19 nM.

Molecule `COC(=O)[C@H]1CCCN1C(=O)O[C@@H](Cc1ccccc1)C(=O)N(C)[C@@H](Cc1c[nH]cn1)C(=O)N[C@@H](CC1CCCCC1)[C@@H](O)CCC(C)C` [(4)] had an IC50 of 13 nM. The IC50 values of the last two molecules are within 1.5-fold of each other. Then `COC(=O)CN(C)C(=O)O[C@@H](Cc1ccccc1)C(=O)N(C)[C@@H](Cc1c[nH]cn1)C(=O)N[C@@H](CC1CCCCC1)[C@@H](O)CCC(C)C` [(3)], with 33 nM; and `CC(C)CC[C@H](O)[C@H](CC1CCCCC1)NC(=O)[C@H](Cc1c[nH]cn1)N(C)C(=O)[C@H](Cc1ccccc1)OC(=O)N(C)CC(=O)OCC(C)C` [(13)], with 34 nM; and `CC(C)CC[C@H](O)[C@H](CC1CCCCC1)NC(=O)[C@H](Cc1c[nH]cn1)N(C)C(=O)[C@H](Cc1ccccc1)OC(=O)N(C)N(C)C(=O)NC(C)C` [(21)], with 43 nM. Consider `CC(C)CC[C@H](O)[C@H](CC1CCCCC1)NC(=O)[C@H](Cc1c[nH]cn1)N(C)C(=O)[C@H](Cc1ccccc1)OC(=O)N(C)CCC(=O)N(C)c1ccccc1` [(26)], for which the IC50 amounted to 24 nM. Compared with the last molecule, the IC50 is about 1.8-fold lower. The figure for `CC(C)CC[C@H](O)[C@H](CC1CCCCC1)NC(=O)[C@H](Cc1c[nH]cn1)N(C)C(=O)[C@H](Cc1ccccc1)OC(=O)N(C)CCCCC(=O)NC(C)C` [(30)] is 6.4 nM; for `CC(C)CC[C@H](O)[C@H](CC1CCCCC1)NC(=O)[C@H](Cc1c[nH]cn1)N(C)C(=O)[C@H](Cc1ccccc1)OC(=O)N(C)CCC(=O)N1CC=CCC1` [(38)] it is 44 nM. The figure for `CC(C)CC[C@H](O)[C@H](CC1CCCCC1)NC(=O)[C@H](Cc1c[nH]cn1)N(C)C(=O)[C@H](Cc1ccccc1)OC(=O)N(C)CCCCC(=O)N(C)C(C)C` [(29)] is 16 nM. Then `CCOC(=O)CNC(=O)CCN(C)C(=O)O[C@@H](Cc1ccccc1)C(=O)N(C)[C@@H](Cc1c[nH]cn1)C(=O)N[C@@H](CC1CCCCC1)[C@@H](O)CCC(C)C` [(16)], with 38 nM. Turning to `CC(C)CC[C@H](O)[C@H](CC1CCCCC1)NC(=O)[C@H](Cc1c[nH]cn1)N(C)C(=O)[C@H](Cc1ccccc1)OC(=O)N1CCN(C)C(=O)C1` [(11)], the IC50 turned out to be 19 nM. `CC(C)CC[C@H](O)[C@H](CC1CCCCC1)NC(=O)[C@H](Cc1c[nH]cn1)N(C)C(=O)[C@H](Cc1ccccc1)OC(=O)N(C)CCC(=O)N(C)CCc1ccccn1` [(37)] came in with an IC50 of 38 nM. The figure for `CC(C)CC[C@H](O)[C@H](CC1CCCCC1)NC(=O)[C@H](Cc1c[nH]cn1)N(C)C(=O)[C@H](Cc1ccccc1)OC(=O)N(C)CCC(=O)NCc1ccccn1` [(17)] is 33 nM. Then `CC(C)CC[C@H](O)[C@H](CC1CCCCC1)NC(=O)[C@H](Cc1c[nH]cn1)N(C)C(=O)[C@H](Cc1ccccc1)OC(=O)N(C)CCC(=O)N1CCSCC1` [(18)], with 30 nM; and `CC(C)CC[C@H](O)[C@H](CC1CCCCC1)NC(=O)[C@H](Cc1c[nH]cn1)N(C)C(=O)[C@H](Cc1ccccc1)OC(=O)N(C)CCC(=O)N(C)CC(C)C` [(27)], with 46 nM; and `CC(C)CC[C@H](O)[C@H](CC1CCCCC1)NC(=O)[C@H](Cc1c[nH]cn1)N(C)C(=O)[C@H](Cc1ccccc1)OC(=O)N(C)CC(=O)NCc1ccncc1` [(8)], with 46 nM. In turn, `CC(C)CC[C@H](O)[C@H](CC1CCCCC1)NC(=O)[C@H](Cc1c[nH]cn1)N(C)C(=O)[C@H](Cc1ccccc1)OC(=O)N(C)CCCN(C)C(=O)N1CCOCC1` [(31)] returned an IC50 of 13 nM. This IC50 is about 3.5-fold lower than that of the molecule before.
